From US11286268B1, “EIF4E-inhibiting compounds and methods” (EFFECTOR THERAPEUTICS, INC., priority 2019, dated 2022)
pIC50: −log10 of the molar value. Read-outs that look alike come from different tables or passages of the source.

Molecular target: recombinant eIF4E (Homo sapiens (Human), UniProt P06730)
Assay: Fluorescence polarization competition assay for eIF4E binding potency
Method in brief: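 Competitive displacement format: compounds compete with a fluorescent m7GDP tracer (20 nM) for 75 nM recombinant eIF4E. Incubation is 30 min at room temperature, protected from light, with 1% DMSO. Polarization read gives IC50 over eight 3-fold concentrations.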

[1] = fluorescence polarization competition, 75 nM recombinant eIF4E, 20 nM EDA-m7GDP-ATTO-550, IC50 class, read-out: elF4E FP
[2] = inhibition of eIF4E/EDA-m7GDP-ATTO-550 binding by 50%, Table 4B calculated values, read-out: IC50
[3] = inhibition of eIF4E/EDA-m7GDP-ATTO-550 binding, calculated IC50 values, Table 4B, read-out: IC50

recombinant eIF4E, sequence (P06730 whole entry): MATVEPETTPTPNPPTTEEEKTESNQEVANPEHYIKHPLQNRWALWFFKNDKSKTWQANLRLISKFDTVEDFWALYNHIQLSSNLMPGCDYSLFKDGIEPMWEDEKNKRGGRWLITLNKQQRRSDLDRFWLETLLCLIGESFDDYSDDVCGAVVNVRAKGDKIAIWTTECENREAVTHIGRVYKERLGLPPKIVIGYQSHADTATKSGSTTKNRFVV

SMILES | pIC50 [1] | pIC50 [2] | pIC50 [3]
Cc1nc2cnc(N(C)C3CCN(CC(F)(F)F)CC3)c(C#N)c2c(=O)n1CCOc1ccc(Cl)cc1-c1ccnc2c(C(=O)NS(C)(=O)=O)csc12 [compound 1157] | > 7.30 | 7.66 | 
Cc1nc2cc(C(F)(F)F)c(N3CC4(C3)CN(C3CC3)C4)c(C#N)c2c(=O)n1CCCc1ccc(Cl)cc1-c1ccnc2c(C(=O)O)csc12 [compound 1158] | > 7.30 | 7.80 | 
Cc1nc2cnc(N3CCN(CCC(F)(F)F)CC3)c(C#N)c2c(=O)n1CC#Cc1ccc(Cl)cc1-c1ccnc2c(C(=O)O)csc12 [compound 1160] | > 7.30 | 7.76 | 
Cc1nc2cnc(N3CCN(CCOC(F)(F)F)CC3)c(C#N)c2c(=O)n1CC#Cc1ccc(Cl)cc1-c1ccnc2c(C(=O)O)csc12 [compound 1161] | > 7.30 | 7.71 | 
Cc1nc2cnc(N3CCN(C4CC4)CC3)c(C#N)c2c(=O)n1CC#Cc1ccc(Cl)cc1-c1ccnc2c(C(=O)O)csc12 [compound 1162] | > 7.30 | 7.67 | 
Cc1nc2cnc(N3CCN(C4CC(F)(F)C4)CC3)c(C#N)c2c(=O)n1CC#Cc1ccc(Cl)cc1-c1ccnc2c(C(=O)O)csc12 [compound 1163] | > 7.30 | 7.61 | 
Cc1nc2cnc(N3CCN(CC(C)(F)CF)CC3)c(C#N)c2c(=O)n1CCOc1ccc(Cl)cc1-c1ccnc2c(C(=O)O)csc12 (stereo not shown) [compound 1164] | > 7.30 | 7.57 | 
Cc1nc2cnc(N(C)C3CCN(C4CC(F)(F)C4)CC3)c(C#N)c2c(=O)n1CC#Cc1ccc(Cl)cc1-c1ccnc2c(C(=O)O)csc12 [compound 1165] | > 7.30 | 7.65 | 
Cc1nc2cnc(N(C)C3CCN(C4CCC4(F)F)CC3)c(C#N)c2c(=O)n1CC#Cc1ccc(Cl)cc1-c1ccnc2c(C(=O)O)csc12 (stereo not shown) [compound 1166] | > 7.30 | 7.54 | 
Cc1nc2cnc(N3CCN(CC4(F)CC4)CC3)c(C#N)c2c(=O)n1CC#Cc1ccc(Cl)cc1-c1ccnc2c(C(=O)O)csc12 [compound 1167] | > 7.30 | 7.76 | 
CCC(F)(F)CN1CCC(N(C)c2ncc3nc(C)n(COCc4ccc(Cl)cc4-c4ccnc5c(C(=O)O)csc45)c(=O)c3c2C#N)CC1 [compound 1168] | > 7.30 | 7.89 | 
Cc1nc2cnc(N(C)C3CCN(CC4(F)CC4)CC3)c(C#N)c2c(=O)n1CC#Cc1ccc(Cl)cc1-c1ccnc2c(C(=O)O)csc12 [compound 1169] | > 7.30 | 7.82 | 
Cc1nc2cnc(N(C)C3CCN(CCOC(F)(F)F)CC3)c(C#N)c2c(=O)n1CC#Cc1ccc(Cl)cc1-c1ccnc2c(C(=O)O)csc12 [compound 1170] | > 7.30 | 7.77 | 
Cc1nc2cnc(N(C)C3CCN(C4CC4)CC3)c(C#N)c2c(=O)n1CC#Cc1ccc(Cl)cc1-c1ccnc2c(C(=O)O)csc12 [compound 1171] | > 7.30 | 7.89 | 
Cc1nc2cnc(N(C)C3CCN([C@H]4C[C@@H](OC(F)F)C4)CC3)c(C#N)c2c(=O)n1CC#Cc1ccc(Cl)cc1-c1ccnc2c(C(=O)O)csc12 [compound 1172] | > 7.30 | 7.85 | 
Cc1nc2cnc(N(C)C3CCN(CC4(F)CCC4)CC3)c(C#N)c2c(=O)n1CC#Cc1ccc(Cl)cc1-c1ccnc2c(C(=O)O)csc12 [compound 1174] | > 7.30 | 8.03 | 
Cc1nc2cnc(N(C)C3CCN([C@@H]4C[C@H]4C(F)(F)F)CC3)c(C#N)c2c(=O)n1CC#Cc1ccc(Cl)cc1-c1ccnc2c(C(=O)O)csc12 [compound 1175] | > 7.30 | 7.66 | 
CCN(c1ncc2nc(C)n(CC#Cc3ccc(Cl)cc3-c3ccnc4c(C(=O)O)csc34)c(=O)c2c1C#N)C1CCN(CC(F)(F)F)CC1 [compound 1176] | > 7.30 | 7.46 | 
CCN(c1ncc2nc(C)n(CC#Cc3ccc(Cl)cc3-c3ccnc4c(C(=O)O)csc34)c(=O)c2c1C#N)C1CCN(CC(C)(F)F)CC1 [compound 1177] | > 7.30 | 7.47 | 
CC(=O)c1csc2c(-c3cc(Cl)ccc3C#CCn3c(C)nc4cc(C(F)(F)F)c(N5CC6(C5)CN(C5CC5)C6)c(C#N)c4c3=O)ccnc12 [compound 1178] | > 7.30 | 7.64 | 
Cc1nc2cc(C(F)(F)F)c(N3CCN(C4CC4)CC3)c(C#N)c2c(=O)n1CCOc1ccc(Cl)cc1-c1ccnc2c(C(=O)NS(C)(=O)=O)csc12 [compound 1179] | > 7.30 | 7.83 | 
Cc1nc2cnc(N3CCC(N4CCC(F)(F)CC4)CC3)c(C#N)c2c(=O)n1CC#Cc1ccc(Cl)cc1-c1ccnc2c(C(=O)O)csc12 [compound 1180] | > 7.30 |  | 
Cc1nc2cnc(N(C)C3CCN(C4CC(F)C4)CC3)c(C#N)c2c(=O)n1CC#Cc1ccc(Cl)cc1-c1ccnc2c(C(=O)O)csc12 (stereo not shown) [compound 1181] | > 7.30 | 7.86 | 
Cc1nc2cnc(N(C)C3CCN(C4(C(F)F)COC4)CC3)c(C#N)c2c(=O)n1CC#Cc1ccc(Cl)cc1-c1ccnc2c(C(=O)O)csc12 [compound 1182] | > 7.30 | 7.87 | 

SMILES | pIC50 [1] | pIC50 [2] | pIC50 [3]
Cc1nc2cnc(N(C)C3CCN(CC(C)(F)F)CC3)c(C#N)c2c(=O)n1CC#Cc1ccc(Cl)cc1-c1ccnc2c(C(=O)NS(=O)(=O)C3COC3)csc12 [compound 1183] | > 7.30 | 7.63 | 
CCN(c1ncc2nc(C)n(CC#Cc3ccc(Cl)cc3-c3ccnc4c(C(=O)O)csc34)c(=O)c2c1C#N)C1CCN(C2CC(F)(F)C2)CC1 [compound 1184] | > 7.30 | 8.03 | 
Cc1nc2cnc(N(C)C3CCN(CC4(F)COC4)CC3)c(C#N)c2c(=O)n1CC#Cc1ccc(Cl)cc1-c1ccnc2c(C(=O)O)csc12 [compound 1185] | > 7.30 | 7.75 | 
CCN(c1ncc2nc(C)n(CC#Cc3ccc(Cl)cc3-c3ccnc4c(C(=O)O)csc34)c(=O)c2c1C#N)C1CCN(C2COC2)CC1 [compound 1186] | > 7.30 | 7.70 | 
Cc1nc2cnc(N3CCC(N4CC(OC(F)F)C4)CC3)c(C#N)c2c(=O)n1CC#Cc1ccc(Cl)cc1-c1ccnc2c(C(=O)O)csc12 [compound 1187] | > 7.30 |  | 
Cc1nc2cnc(N(C)C3CCN(CC4CC(OC(F)F)C4)CC3)c(C#N)c2c(=O)n1CC#Cc1ccc(Cl)cc1-c1ccnc2c(C(=O)O)csc12 (stereo not shown) [compound 1189] | > 7.30 |  | 7.87
Cc1nc2cnc(N(C)C3CCN(CCC(C)(F)F)CC3)c(C#N)c2c(=O)n1CC#Cc1ccc(Cl)cc1-c1ccnc2c(C(=O)O)csc12 [compound 1190] | > 7.30 |  | 8.14
CCN(c1ncc2nc(C)n(CC#Cc3ccc(Cl)cc3-c3ccnc4c(C(=O)O)csc34)c(=O)c2c1C#N)C1CCN(CC(F)(F)C(F)F)CC1 [compound 1191] | > 7.30 |  | 7.89
Cc1cc(-c2cc(Cl)ccc2OCCn2c(C)nc3cc(C(F)(F)F)c(-c4ccnc5c4CCN5)c(C#N)c3c2=O)c2scc(C(=O)O)c2n1 [compound 1192] | > 7.30 |  | 7.31
Cc1cc(-c2cc(Cl)ccc2OCCn2c(C)nc3c(=O)n(C)c(-c4ccccc4)c(C#N)c3c2=O)c2scc(C(=O)O)c2n1 [compound 1193] | > 7.30 |  | 
Cc1cc(-c2cc(Cl)ccc2OCCn2c(C)nc3cnc([C@H]4C[C@@H](O)C4)c(C#N)c3c2=O)c2scc(C(=O)O)c2n1 [compound 1194] | > 7.30 |  | 7.82
COC(=O)c1csc2c(-c3cc(Cl)ccc3C#CCn3c(C)nc4cnc(N(C)C5CCN(CC(F)(F)F)CC5)c(C#N)c4c3=O)ccnc12 [compound 1195] | > 7.30 |  | 7.88
Cc1cc(-c2cc(Cl)ccc2OCCn2c(C)nc3cc(C(F)(F)F)c(OCC(F)F)c(C#N)c3c2=O)c2scc(C(=O)O)c2n1 [compound 1197] | > 7.30 |  | 8.23
CCc1cc(-c2cc(Cl)ccc2OCCn2c(C)nc3c(Cl)nc(C4CC4)c(C#N)c3c2=O)c2scc(C(=O)O)c2n1 [compound 1198] | > 7.30 |  | 7.89
CCc1cc(-c2cc(Cl)ccc2OCCn2c(C)nc3c(N(C)C)nc(C4CC4)c(C#N)c3c2=O)c2scc(C(=O)O)c2n1 [compound 1199] | > 7.30 |  | 7.74
Cc1cc(-c2cc(Cl)ccc2OCCn2c(C)nc3cc(C(F)(F)F)c(CCN(C)C)c(C#N)c3c2=O)c2sc(C)c(C(=O)O)c2n1 [compound 1200] | > 7.30 |  | 7.83
Cc1cc(-c2cc(Cl)ccc2OCCn2c(C)nc3cc(Cl)c(N4CCN(C(C)(C)C)CC4)c(C#N)c3c2=O)c2sc(C)c(C(=O)O)c2n1 [compound 1201] | > 7.30 |  | 7.64
Cc1cc(-c2cc(Cl)ccc2OCCn2c(C)nc3cnc(N4C[C@H]5C[C@@H](C4)N5C)c(C#N)c3c2=O)c2sc(C)c(C(=O)O)c2n1 [compound 1202] | > 7.30 |  | 7.71
Cc1cc(-c2cc(Cl)ccc2OCCn2c(C)nc3cnc(N4[C@@H]5C[C@H]4CN(C)C5)c(C#N)c3c2=O)c2sc(C)c(C(=O)O)c2n1 [compound 1203] | > 7.30 |  | 8.04
COC(=O)c1csc2c(-c3cc(Cl)ccc3OCCn3c(C)nc4cc(C(F)(F)F)c(N5CCN(C6CC6)CC5)c(C#N)c4c3=O)ccnc12 [compound 1206] | > 7.30 |  | 7.49
Cc1cc(-c2cc(Cl)ccc2OCCn2c(C)nc3cc(C(F)(F)F)c(N4CCN(C)C(C(F)(F)F)C4)c(C#N)c3c2=O)c2sc(C)c(C(=O)O)c2n1 (stereo not shown) [compound 1207] | 6.00 to 7.30 |  | 6.92
COc1cc2nc(C)n(CCOc3ccc(Cl)cc3-c3cc(C)nc4c(C(=O)O)c(C)sc34)c(=O)c2c(C#N)c1N1CCN(C)CC1 [compound 1208] | > 7.30 |  | 7.31
Cc1cc(-c2cc(Cl)ccc2OCCn2c(C)nc3cc(S(C)(=O)=O)c(N4CCN(C)CC4)cc3c2=O)c2scc(C(=O)O)c2n1 [compound 1209] | 6.00 to 7.30 |  | 7.01
